From patent US6613756B2 (Wisconsin Alumni Research Foundation, priority 2000, dated 2003)
Where a name gives a salt, the structure may show the parent alone.

Columns and labels:
naive DA rats = test: Minocycline treatment of naive, non-immunized animals; type: in vivo, rat
Excerpt: In the high-dose MOG immunization paradigm rats were separated into two groups: EAE^pbs-phosphate-buffered saline (PBS)-treated rats (n=5) from day 1 post-immunization and EAE^tr-minocycline-treated rats (n=6) from day 1 post-immunization.
(§1) Matched unimmunized, naive groups were also included: N^pbs-PBS-treated animals (n=10), N^tr1-minocycline-treated from experimental day 10 (n=10), N^tr2-minocycline-treated from experimental day 13 (n=5), N^tr3 minocycline-treated from experimental day 13, with twice daily injections during the first two days followed by single injection throughout the remaining treatment period (n=5).

[1] = system: DA rats with MOG-induced EAE; test: High-dose MOG (100 μg rMOG/IFA) immunization paradigm of EAE; type: in vivo, rat
Experimental: Statistical analysis of clinical scores was performed by averaging them over all times of the treatment and subtracting the first 11 days after immunization when clinical score in all groups was 0. Statistical significance was established using a repeated measures analysis where clinical score between treatments was compared from day 12 to 42 building in an auto-correlation of the error term. ANOVA and Student's t-test were used to establish the difference between experimental groups in all other examined parameters. […]

[2] = system: MOG-specific T-cell response; test: MOG-specific T-cell response of draining lymph node cells from treated rats; type: cell-based, rat; conditions: high-dose MOG; minocycline day 1 to 10; 10 d.p.i.
Experimental: Draining lymph nodes and spleens were removed 10 days post-immunization (d.p.i.) and proliferation assays performed in flat-bottomed 96-well tissue culture plates in a total volume of 200 μl using either 5×10^5 lymph node or spleen cells (Raine, C. S., et al., supra, 1999). Antigen specific proliferation was assessed by the incorporation of ^3H-thymidine (10 μCi/well) during the final 18 hours of a 72 hour culture period using a Packard Matrix 96 Direct Beta counter.

[3] = system: DA rats with MOG-induced EAE; test: Low-dose MOG (10 μg rMOG/CFA) immunization paradigm of relapsing remitting EAE; type: in vivo, rat; conditions: for % Of Dorsal Column Demyelinated / % Of Mortality / Mean Cumulative Score / % Of Incidence: 10 μg rMOG/CFA
Experimental: Experiments were performed on 6-8 week old female DA rats obtained from Harlan-Sprague Dawley, Indianapolis, Ind. or Harlan-Winkelmann, Germany. During the observation period, rats were housed in a light- and temperature-controlled environment and were permitted free access to food and water. The recombinant extracellular immunogobulin domain of MOG was expressed in E. coli and purified as described previously (Raine, C. S., et al., Ann. Neurol. 46:144-160, 1999).
Rats were immunized sub-cutaneously (s.c.) at the base of the tail with either 10 μg MOG in complete Freund's adjuvant (CFA) or 100 μg MOG emulsified in incomplete Freund's adjuvant (IFA) (Difco, Detroit, Mich.) in a total volume of 100 μl. Animals were weighed and examined daily for clinical signs of EAE that was scored on the following scale: 0.5, partial loss of tail tone; 1, complete tail atony; 2, hind limb weakness; 3, hind limb paralysis; 4, moribund; 5, dead. […]
as §1
Animals were deeply anesthetized with pentobarbital and perfused transcardially with Ringer's followed by 4% paraformaldehyde. The brain and spinal cord were removed and prepared for paraffin and epon embedding or cryo-protected in 30% sucrose. Paraffin sections were used to assess the degree of inflammation (hematoxylin and eosin) and one-micron semithin sections were used to estimate the demyelination in the spinal cord (toluidine blue). Areas with inflammatory infiltrates or demyelinating lesions in the dorsal funiculus of spinal cord were scored using a CCD72 camera to collect digital images that were analyzed with the Microcomputer Imaging Device (MCID) software from Imaging Research Inc. (St. Catherines, Ontario). Measurements for cell infiltrates and demyelination were expressed as percent of the total white matter area of the dorsal funiculus. To determine the profile of inflammatory infiltrates within lesions 10 μm cryostat sections of thoracic-lumbar spinal cord were immunolabelled for MHC II (Harlan Sera-Lab), CR3, CD45 (Serotec), GFAP (Dako), CD3 (PharMingen) and MMP-2 (Oncogne Research Products) protein expression. Primary antibodies were detected using a biotinylated secondary antibodies and the avidin: biotin enzyme complex technique (Vector Laboratories). Areas with immunolabelling-defined inflammatory infiltrates were scored using a semi-quantitative scale: 0-no inflammatory infiltrates or lesions, 1-25%, 2-50%, 3-75%, and 4-100% of the dorsal funiculus.
Statistical analysis of clinical scores was performed by averaging them over all times of the treatment and subtracting the first 11 days after immunization when clinical score in all groups was 0. Statistical significance was established using a repeated measures analysis where clinical score between treatments was compared from day 12 to 42 building in an auto-correlation of the error term. ANOVA and Student's t-test were used to establish the difference between experimental groups in all other examined parameters. Statistically significant differences were presented as: * for P<0.05, ** for P<0.01, and *** for P<0.001.

collagenase = conditions: cited from earlier work
[4] = minocycline from day 10 (EAEtr1)
[5] = minocycline from day of onset (EAEtr2)
[6] = minocycline from day of onset, double-dose (EAEtr3)

| Compound | adverse effects (naive DA rats) | % Of Incidence ([1]; minocycline 45 mg/kg i.p. daily from day 1, terminated day 20) | % Of Dorsal Column Demyelinated ([1]; minocycline from day 1) | Mean Cumulative Score ([1]; minocycline from day 1, sum of daily scores of all animals / number of animals) | % Of Mortality ([1]; minocycline from day 1, terminated day 20) | antigen specific proliferative response of draining lymph node cells [2] | % Of Dorsal Column Demyelinated [3, 4] | % Of Mortality [3, 4] | Mean Cumulative Score [3, 4] | % Of Incidence ([3]; minocycline from day 10 (EAEtr1), 42 days) | % Of Dorsal Column Demyelinated [3, 5] | % Of Incidence [3, 5] | % Of Mortality [3, 5] | Mean Cumulative Score [3, 5] | % Of Dorsal Column Demyelinated [3, 6] | % Of Mortality [3, 6] | Mean Cumulative Score [3, 6] | % Of Incidence ([3]; minocycline from day of onset, double-dose first two days (EAEtr3)) | maximal clinical disease grade reached ([3]; twice daily for first two days from onset, then once daily (EAEtr3)) | anti-collagenase activity (collagenase) |
| --- | --- | --- | --- | --- | --- | --- | --- | --- | --- | --- | --- | --- | --- | --- | --- | --- | --- | --- | --- | --- |
| CN(C)c1ccc(O)c2c1C[C@H]1C[C@H]3[C@H](N(C)C)C(O)=C(C(N)=O)C(=O)[C@@]3(O)C(O)=C1C2=O [Minocycline, Minocycline hydrochloride] | not found to induce any adverse effects | 80% | 6.25% | 5.5 | 0% | no significant effect | 5.94% | 0% | 7.43 | 40% | 0.12% | 100% | 0% | 26.25 | 0.04% | 0% | 10.12 | 100% | ≤ 1 |  |
| NC(=O)C1=C(O)C[C@@H]2C[C@@H]3Cc4cccc(O)c4C(=O)C3=C(O)[C@]2(O)C1=O [CMT-3, 6-demethyl 6-deoxy 4-dedimethylamino tetracycline] |  |  |  |  |  |  |  |  |  |  |  |  |  |  |  |  |  |  |  | persistent anti-collagenase activity |
| CC1(O)c2cccc(O)c2C(=O)C2=C(O)C3(O)C(=O)C(C(N)=O)=C(O)CC3CC21 (stereo not drawn) [CMT-1, 4-dedimethylamino tetracycline] |  |  |  |  |  |  |  |  |  |  |  |  |  |  |  |  |  |  |  | persistent anti-collagenase activity |
